# Assay results taken from patent US20060039985A1, “Methotrexate compositions” (priority 2004, published 2006).
# What was measured:
# Format in all cases: physicochemical
# [1] = Karl Fisher moisture determination; settings: Karl Fisher potentiometric titration; powder in formamide; 0.6 % RSD
# Method: Moisture content in methotrexate powder was measured by Karl Fisher potentiometric titration by direct injection using a Mitsubishi model CA-06 moisturemeter (Mitsubishi Kasei Corporation, Japan). The powder was dissolved/dispersed in 2.5 mL formamide and 1 mL of the solution was injected […]. Titration checks were made by injecting water standards, Mitsubishi (catalogue number MC02020), at several time intervals.
# [2] = Dynamic vapor sorption (DVS) study; settings: 25° C.
# Method: Water sorption/desorption studies were conducted on a DVS-1000 moisture balance system (Surface Measurement Systems, UK). A sample (15-30 mg) was initially dried at 25° C. until a constant weight was achieved. The relative humidity was increased from 0 to 90% (with 5% relative humidity increments). Each successive increment was initiated when the change in weight at a given relative humidity was smaller than 5 μg over 5 minutes. Once the sample was exposed to 90% relative humidity, the process was reversed from 90% to 0 relative humidity (with 10% relative humidity increments).
# [3] = Modulated differential scanning calorimetry (MDSC) study; settings: MDSC heating, 2° C./minute
# Method: MDSC studies were performed using a TA 2920 instrument (TA instruments, New Castle, Del.). A sample (5-10 mg) of the powder was filled into an aluminum DSC pan in a glove box, with the relative humidity maintained under 1%, and hermetically sealed using a sample encapsulation press. Helium was used as a purge at 30 cm^3/minute; the Refrigerated Control System (RCS) used helium at a flow rate of 110 cm^3/minute. The MDSC protocol was as follows: equilibrate at 0° C.; modulate ±0.318° C. every 60 seconds; ramp 2° C./minute to 200° C.; isothermal for 5 minutes; ramp 10° C./minute to 0° C.; isothermal for 5 minutes; modul 0.318° C. every 60 seconds; ramp 2° C./minute to 280° C.
# [4] = Solubility in REDISPERSE organic solvent (noted in the PLM study)
# Method: PLM and hot stage microscopy studies were done using a Nikon (Melville, N.Y.) Optihot-2 polarizing microscope. A Mettler (Columbus, Ohio) Toledo FP82HT hot stage attachment provided the variable temperature analyses from room temperature to 250° C. at 10° C. per minute. Photomicrographs were taken using a Nikon 35 mm attachment using either a 20× or 40× objective. Microscope slides and coverslips were cleaned with methanol prior to use.
# Birefringence persisted after quench cooling from […]
compound,measurement,setting,value
CN(Cc1cnc2nc(N)nc(N)c2n1)c1ccc(C(=O)N[C@@H](CCC(=O)O)C(=O)O)cc1 [methotrexate],Moisture content,[1],7.1%
same,Hygroscopicity compared to crystalline material,[2],hygroscopic than the crystalline material
same,Relative humidity at which signs of moisture-induced crystallization are observed in DVS time profile,[2],70 % relative humidity
same,Hysteresis upon desorption of water,[2]; 90% to 0 relative humidity,no hysteresis
same,"Absorption of water, % of its weight",[2]; at 90% relative humidity,about 13.5%
same,Storage relative humidity for long term stability of liquid crystalline phase,[2]; suggested by DVS data,below 70 % relative humidity
same,Decomposition temperature,[3],246-250 °C
same,Solubility in REDISPERSE brand of solvent,[4],insoluble
